From patent US20250154138A1, “Small Molecule IL-17A Modulators” (BeiGene, Ltd., priority 2022, published 2025)
Read-outs that look alike come from different tables or passages of the source.

Columns and labels:
[1] = test system: IL-17-induced GROα secretion from HT-29 cells; assay: GROα release assay in human colorectal adenocarcinoma epithelial cell (HT-29, ELISA); assay type: cell-based; conditions: 10 ng/mL IL-17A, highest concentration 10 μM, read-out: Cellular assay HT29 cell/CXCL1 IC50
In short: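 IC50 values come from four-parameter fits of GROα levels, quantified by ELISA (450 nm, standard curve) in supernatants. Compounds, 4-fold serially diluted from 10 μM, were mixed 15 min with IL-17A (10 ng/mL final) before 48 h incubation with HT-29 cells at 37°C.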

[2] = target: human IL-17A / human IL-17RA (Homo sapiens (Human), UniProt Q16552); assay: Human IL-17A biochemical assay (HTRF, blocking of IL-17A binding to IL-17RA); conditions: 0.4 nM IL-17A, 0.3 nM IL-17RA, max compound concentration 10 uM
Sequence of human IL-17A / human IL-17RA (Q16552 24-155): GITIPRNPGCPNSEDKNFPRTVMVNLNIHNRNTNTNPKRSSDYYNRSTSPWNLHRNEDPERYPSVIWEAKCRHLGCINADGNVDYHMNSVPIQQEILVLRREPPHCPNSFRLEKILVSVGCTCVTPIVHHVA
In short: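 In this time-resolved fluorescence format, the cytokine (0.4 nM) is exposed to compound for 3 h before 0.3 nM receptor is added for 1 h, with all incubations at room temperature in HEPES buffer, pH 7.5. The 620/665 nm signal ratio gives percent inhibition, and IC50 is taken from a 4-parameter curve.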

| SMILES | IC50 ([1]; Homo sapiens, HT-29, 48 h) | IC50 [2] | IC50 ([1]; 48 hours) |
| --- | --- | --- | --- |
| CC(C)n1nccc1C(=O)N[C@H](C(=O)Nc1ccc2c(c1)CC(c1nc3cccc(C(F)(F)F)c3[nH]1)(N1CC3(CC3)CNC1=O)C2)C(C1CC1)C1CC1 (stereo partly drawn) [Example 198, N-((2S)-1,1-dicyclopropyl-3-oxo-3-((2-(6-oxo-5,7-diazaspiro[2.5]octan-5-yl)-2-(7-(trifluoromethyl)-1H-benzo[d]imidazol-2-yl)-2,3-dihydro-1H-inden-5-yl)amino)propan-2-yl)-1-isopropyl-1H-pyrazole-5-carboxamide] | 316 nM | 1130 nM | – |
| Cn1nccc1C(=O)N[C@H](C(=O)Nc1ccc2c(c1)CC(N1CC3(CC3)CNC1=O)C2)C1CCCCC1 (stereo partly drawn) [Example 199, N-((1S)-1-cyclohexyl-2-oxo-2-((2-(6-oxo-5,7-diazaspiro[2.5]octan-5-yl)-2,3-dihydro-1H-inden-5-yl)amino)ethyl)-1-methyl-1H-pyrazole-5-carboxamide] | 2770 nM | 570 nM | – |
| Cn1nccc1C(=O)N[C@H](C(=O)Nc1ccc2c(c1)CC(C(=O)Nc1cccc(F)c1)(N1CC3(CC3)CNC1=O)C2)C1CCCCC1 (stereo partly drawn) [Example 200, N-((1S)-1-cyclohexyl-2-((2-((3-fluorophenyl)carbamoyl)-2-(6-oxo-5,7-diazaspiro[2.5]octan-5-yl)-2,3-dihydro-1H-inden-5-yl)amino)-2-oxoethyl)-1-methyl-1H-pyrazole-5-carboxamide] | 107 nM | 31.2 nM | – |
| CNC(=O)C1(N2C[C@@H](C(C)C)NC2=O)Cc2ccc(NC(=O)C(NC(=O)c3ccnn3C)C3CCc4c(Cl)cccc4C3)cc2C1 (stereo partly drawn) [Example 201, N-(1-(5-chloro-1,2,3,4-tetrahydronaphthalen-2-yl)-2-((2-((R)-4-isopropyl-2-oxoimidazolidin-1-yl)-2-(methylcarbamoyl)-2,3-dihydro-1H-inden-5-yl)amino)-2-oxoethyl)-1-methyl-1H-pyrazole-5-carboxamide] | 39.5 nM | 6.5 nM | – |
| CNC(=O)C1(N2CC(C(F)(F)F)NC2=O)Cc2ccc(NC(=O)[C@@H](NC(=O)c3ccnn3C)C3CCCCC3)cc2C1 (stereo partly drawn) [Example 202, N-((1S)-1-cyclohexyl-2-((2-(methylcarbamoyl)-2-(2-oxo-4-(trifluoromethyl)imidazolidin-1-yl)-2,3-dihydro-1H-inden-5-yl)amino)-2-oxoethyl)-1-methyl-1H-pyrazole-5-carboxamide] | 519 nM | 346 nM | – |
| Cc1nonc1C(=O)N[C@H](C(=O)Nc1ccc2c(c1)CC(C(=O)Nc1cccc(F)c1)(N1CC3(CC3)CNC1=O)C2)C1CCC(F)(F)CC1 (stereo partly drawn) [Example 203, N-((1S)-1-(4,4-difluorocyclohexyl)-2-((2-((3-fluorophenyl)carbamoyl)-2-(6-oxo-5,7-diazaspiro[2.5]octan-5-yl)-2,3-dihydro-1H-inden-5-yl)amino)-2-oxoethyl)-4-methyl-1,2,5-oxadiazole-3-carboxamide] | 135 nM | 63.9 nM | – |
| CNC(=O)C1(N2C[C@@H](C(C)C)NC2=O)Cc2ccc(NC(=O)[C@H](Cc3ccc(Cl)cc3)NC(=O)c3ccnn3C)cc2C1 (stereo partly drawn) [Example 204, N-((2S)-3-(4-chlorophenyl)-1-((2-((R)-4-isopropyl-2-oxoimidazolidin-1-yl)-2-(methylcarbamoyl)-2,3-dihydro-1H-inden-5-yl)amino)-1-oxopropan-2-yl)-1-methyl-1H-pyrazole-5-carboxamide] | 2240 nM | 406 nM | – |
| Cc1nonc1C(=O)N[C@H](C(=O)Nc1ccc2c(c1)CC(c1nc(-c3ccccc3)c[nH]1)(N1CC3(CC3)CNC1=O)C2)C1CCC(F)(F)CC1 (stereo partly drawn) [Example 205, N-((1S)-1-(4,4-difluorocyclohexyl)-2-oxo-2-((2-(6-oxo-5,7-diazaspiro[2.5]octan-5-yl)-2-(4-phenyl-1H-imidazol-2-yl)-2,3-dihydro-1H-inden-5-yl)amino)ethyl)-4-methyl-1,2,5-oxadiazole-3-carboxamide] | 193 nM | 246 nM | – |
| CC(C)n1nccc1C(=O)N[C@H](C(=O)Nc1ccc2c(c1)CC(c1ncc(-c3ccccc3)[nH]1)(N1CC3(CC3)CNC1=O)C2)C(C1CC1)C1CC1 (stereo partly drawn) [Example 206, N-((2S)-1,1-dicyclopropyl-3-oxo-3-((2-(6-oxo-5,7-diazaspiro[2.5]octan-5-yl)-2-(5-phenyl-1H-imidazol-2-yl)-2,3-dihydro-1H-inden-5-yl)amino)propan-2-yl)-1-isopropyl-1H-pyrazole-5-carboxamide] | 32.5 nM | 270 nM | – |
| CCC(CC)OC(=O)C1(N2CC3(CC3)CNC2=O)Cc2ccc(NC(=O)[C@@H](NC(=O)c3nonc3C)C3CCC(F)(F)CC3)cc2C1 (stereo partly drawn) [Example 207, pentan-3-yl 5-((S)-2-(4,4-difluorocyclohexyl)-2-(4-methyl-1,2,5-oxadiazole-3-carboxamido)acetamido)-2-(6-oxo-5,7-diazaspiro[2.5]octan-5-yl)-2,3-dihydro-1H-indene-2-carboxylate] | 861 nM | 347 nM | – |
| Cc1nonc1C(=O)NC(C(=O)Nc1ccc2c(c1)CC(N1C[C@@H](C(F)(F)F)NC1=O)C2)C1CCc2cc(Cl)ccc2C1 (stereo partly drawn) [Example 208, N-(1-(6-chloro-1,2,3,4-tetrahydronaphthalen-2-yl)-2-oxo-2-((2-((S)-2-oxo-4-(trifluoromethyl)imidazolidin-1-yl)-2,3-dihydro-1H-inden-5-yl)amino)ethyl)-4-methyl-1,2,5-oxadiazole-3-carboxamide] | 2170 nM | 718 nM | – |
| CC(C)[C@@H]1CC(C2Cc3ccc(NC(=O)[C@@H](NC(=O)c4ccnn4C)C4CCCCC4)cc3C2)C(=O)N1 (stereo partly drawn) [Example 209, N-((1S)-1-cyclohexyl-2-((2-((5S)-5-isopropyl-2-oxopyrrolidin-3-yl)-2,3-dihydro-1H-inden-5-yl)amino)-2-oxoethyl)-1-methyl-1H-pyrazole-5-carboxamide] | 2180 nM | 1060 nM | – |
| Cc1nonc1C(=O)N[C@H](C(=O)Nc1ccc2c(c1)CC(C#N)(N1CC3(CC3)CNC1=O)C2)C1CCC(F)(F)CC1 (stereo partly drawn) [Example 210, N-((1S)-2-((2-cyano-2-(6-oxo-5,7-diazaspiro[2.5]octan-5-yl)-2,3-dihydro-1H-inden-5-yl)amino)-1-(4,4-difluorocyclohexyl)-2-oxoethyl)-4-methyl-1,2,5-oxadiazole-3-carboxamide] | 294 nM | 91.6 nM | – |
| Cc1nonc1C(=O)N[C@H](C(=O)Nc1ccc2c(c1)CC(C1C[C@@H](C(C)C)NC1=O)C2)C(C1CC1)C1CC1 (stereo partly drawn) [Example 211, N-((2S)-1,1-dicyclopropyl-3-((2-((5S)-5-isopropyl-2-oxopyrrolidin-3-yl)-2,3-dihydro-1H-inden-5-yl)amino)-3-oxopropan-2-yl)-4-methyl-1,2,5-oxadiazole-3-carboxamide] | – | 465 nM | 3680 nM |
| Cc1nonc1C(=O)N[C@H](C(=O)Nc1ccc2c(c1)CC(C(C)C)(N1CC(C(F)(F)F)NC1=O)C2)C(C1CC1)C1CC1 (stereo partly drawn) [Example 212, N-((2S)-1,1-dicyclopropyl-3-((2-isopropyl-2-(2-oxo-4-(trifluoromethyl)imidazolidin-1-yl)-2,3-dihydro-1H-inden-5-yl)amino)-3-oxopropan-2-yl)-4-methyl-1,2,5-oxadiazole-3-carboxamide] | 1030 nM | 687 nM | – |
| Cc1nonc1C(=O)N[C@H](C(=O)Nc1ccc2c(c1)CC(N1C[C@@H](C(F)(F)F)NC1=O)C2)C1CCCCC1 (stereo partly drawn) [Example 213, N-((1S)-1-cyclohexyl-2-oxo-2-((2-((S)-2-oxo-4-(trifluoromethyl)imidazolidin-1-yl)-2,3-dihydro-1H-inden-5-yl)amino)ethyl)-4-methyl-1,2,5-oxadiazole-3-carboxamide] | 4520 nM | 1760 nM | – |
| Cc1ccccc1NC(=O)C1(N2CC3(CC3)CNC2=O)Cc2ccc(NC(=O)[C@@H](NC(=O)c3nonc3C)C3CCC(F)(F)CC3)cc2C1 (stereo partly drawn) [Example 214, N-((1S)-1-(4,4-difluorocyclohexyl)-2-oxo-2-((2-(6-oxo-5,7-diazaspiro[2.5]octan-5-yl)-2-(o-tolylcarbamoyl)-2,3-dihydro-1H-inden-5-yl)amino)ethyl)-4-methyl-1,2,5-oxadiazole-3-carboxamide] | 102 nM | 37.3 nM | – |
| Cc1nonc1C(=O)N[C@H](C(=O)Nc1ccc2c(c1)CC(C(=O)Nc1cncs1)(N1CC3(CC3)CNC1=O)C2)C1CCC(F)(F)CC1 (stereo partly drawn) [Example 215, N-((1S)-1-(4,4-difluorocyclohexyl)-2-oxo-2-((2-(6-oxo-5,7-diazaspiro[2.5]octan-5-yl)-2-(thiazol-5-ylcarbamoyl)-2,3-dihydro-1H-inden-5-yl)amino)ethyl)-4-methyl-1,2,5-oxadiazole-3-carboxamide] | 134 nM | 33.6 nM | – |
| Cc1nonc1C(=O)N[C@H](C(=O)Nc1ccc2c(c1)CC(C(=O)Nc1cccc(F)c1)(N1CC3(CC3)CNC1=O)C2)C(C1CC1)C1CC1 (stereo partly drawn) [Example 216, N-((2S)-1,1-dicyclopropyl-3-((2-((3-fluorophenyl)carbamoyl)-2-(6-oxo-5,7-diazaspiro[2.5]octan-5-yl)-2,3-dihydro-1H-inden-5-yl)amino)-3-oxopropan-2-yl)-4-methyl-1,2,5-oxadiazole-3-carboxamide] | 58.9 nM | 23.3 nM | – |
| Cn1nccc1C(=O)NC(C(=O)Nc1ccc2c(c1)CC(N1C[C@@H](C(F)(F)F)NC1=O)C2)C1CCc2cc(Cl)ccc2C1 (stereo partly drawn) [Example 217, N-(1-(6-chloro-1,2,3,4-tetrahydronaphthalen-2-yl)-2-oxo-2-((2-((S)-2-oxo-4-(trifluoromethyl)imidazolidin-1-yl)-2,3-dihydro-1H-inden-5-yl)amino)ethyl)-1-methyl-1H-pyrazole-5-carboxamide] | 394 nM | 62.5 nM | – |
